Values quoted from earlier work as cited in patent US20200003795A1, “DETERMINATION OF ANALYTES IN LIQUID SAMPLES BY MASS SPECTROMETRY” (Quest Diagnostics Investments Incorporated, priority 2001, published 2020).
Read-outs that look alike come from different tables or passages of the source.

Experiments:
[1] = circulating drug, at a therapeutic level of 1-10 μg/mL
[2] = not given; remark: listed apart in the source

Therapeutic levels in blood ([2]; blood, trough)	mean-time-to-peak concentration ([2]; on administration)	Compound	therapeutic level (circulating)	half-life (multiple doses)	half-life (single dose)	bound to protein [1]
–	–	Nc1nnc(-c2cccc(Cl)c2Cl)c(N)n1 [lamotrigine, 6-(2,3-dichlorophenyl)-1,2,4-triazine-3,5-diamine]	1 to 10 µg/mL	7.5 to 23.1 h	6.4 to 30.4 h	about 55%
3 to 18 ng/mL	1 to 2 h	CO[C@H]1C[C@@H]2CC[C@@H](C)[C@@](O)(O2)C(=O)C(=O)N2CCCC[C@H]2C(=O)O[C@H]([C@H](C)C[C@@H]2CC[C@@H](O)[C@H](OC)C2)CC(=O)[C@H](C)/C=C(\C)[C@@H](O)[C@@H](OC)C(=O)[C@H](C)C[C@H](C)/C=C/C=C/C=C/1C [sirolimus]	–	–	–	–
